According to patent US20170326125A1, “MULTISUBSTITUTED AROMATIC COMPOUNDS AS INHIBITORS OF THROMBIN” (VERSEON CORPORATION, priority 2016, published 2017):

The compounds below were run against T1, Human thrombin (Homo sapiens, UniProt P00734) (assay: Inhibition of the protease activity of thrombin (chromogenic substrate S-2238)). Conditions: Table C; 3 nM thrombin, 125 μM S-2238, 10 min pre-incubation, RT.
T1 construct: purchased Haematologic Technologies Inc
Type: biochemical
Procedure: Compounds described herein can be assayed, by a variety of methods known in the art and described herein, for inhibition of biological activity, e.g., protease activity, of a variety of proteins, e.g., thrombin.
The thrombin activity reported herein (e.g., Table A) was obtained as follows. Human thrombin was obtained from Haematologic Technologies Inc. The chromogenic
Thrombin was assayed in buffer containing 0.05 M Tris (pH 7.4), 0.015 M NaCl and 0.01% PEG-8000. The final concentration of enzyme used was 3 nM thrombin. […] All assays were performed in 96-well microtiter plates at room temperature (RT). […] Inhibitor IC50 values were determined by adding test compound as ten point, three-fold serial dilutions in buffer solution, as known in the art. The plate was read at 10 minutes after substrate addition. The IC50 was calculated by plotting the percent (%) inhibition against compound concentration and fitting the data to a constrained four parameter sigmoidal curve, as known in the art.

`Cc1ccc(C(=O)n2nc(-c3cccnc3)nc2N)cc1` [Cmpd 339, 1-[(4-methylphenyl)carbonyl]-3-(pyridin-3-yl)-1H-1,2,4-triazol-5-amine] and `COc1ccc(CNc2nc(-c3cccnc3)nn2C(=O)c2ccc(C)cc2)cc1` [Cmpd 404, N-[(4-methoxyphenyl)methyl]-1-[(4-methylphenyl)carbonyl]-3-(pyridin-3-yl)-1H-1,2,4-triazol-5-amine] fall in the same range of IC50: 100 to 1000 nM for the first, 100 to 1000 nM for the second.

`O=C(c1ccccc1Cl)n1nc(-c2cccnc2)nc1NCc1ccc(F)cc1` [Cmpd 332, 1-[(2-chlorophenyl)carbonyl]-N-[(4-fluorophenyl)methyl]-3-(pyridin-3-yl)-1H-1,2,4-triazol-5-amine] and `O=C(Cc1ccccc1)n1nc(-c2cccnc2)nc1NCc1ccc(F)cc1` [Cmpd 313, 1-(5-[(4-fluorophenyl)methyl]amino-3-(pyridin-3-yl)-1H-1,2,4-triazol-1-yl)-2-phenylethan-1-one] cannot be ordered by IC50: < 100 nM for the first, < 100 nM for the second.

`CCOc1ccc(NC(=O)c2nc(-n3cnnc3)n[nH]2)cc1` [Cmpd 393, N-(4-ethoxyphenyl)-3-(4H-1,2,4-triazol-4-yl)-1H-1,2,4-triazole-5-carboxamide] and `COC(=O)c1n[nH]c(NC(=O)CCc2ccc(C)cc2)n1` [Cmpd 388, methyl 5-[3-(4-methylphenyl)propanamido]-1H-1,2,4-triazole-3-carboxylate] cannot be ordered by IC50: > 1000 nM for the first, > 1000 nM for the second.

Going from `COc1ccc(CNc2nc(-c3cccnc3)nn2C(=O)c2cccs2)cc1` [Cmpd 405, N-[(4-methoxyphenyl)methyl]-3-(pyridin-3-yl)-1-[(thiophen-2-yl)carbonyl]-1H-1,2,4-triazol-5-amine] to `CC(=O)n1nc(-c2cccnc2)nc1NCc1ccc(F)cc1` [Cmpd 317, 1-(5-[(4-fluorophenyl)methyl]amino-3-(pyridin-3-yl)-1H-1,2,4-triazol-1-yl)ethan-1-one], the IC50 falls from > 1000 nM to < 100 nM.

First: O=C(c1ccccc1Cl)n1nc(-c2ccco2)nc1NCc1ccccc1 [Cmpd 408, N-benzyl-1-[(2-chlorophenyl)carbonyl]-3-(furan-2-yl)-1H-1,2,4-triazol-5-amine]
Second: COc1ccccc1C(=O)n1nc(-c2ccccc2)nc1N [Cmpd 334, 1-[(2-methoxyphenyl)carbonyl]-3-phenyl-1H-1,2,4-triazol-5-amine]
The IC50 of the first is lower: < 100 nM for the first, > 1000 nM for the second. The first is the more potent here.

`CC(C)CC(=O)n1nc(-c2cccnc2)nc1NCc1cccs1` [Cmpd 375, 3-methyl-1-[3-(pyridin-3-yl)-5-[(thiophen-2-ylmethyl)amino]-1H-1,2,4-triazol-1-yl]butan-1-one] and `CCCC(=O)n1nc(-c2cccnc2)nc1NCc1ccco1` [Cmpd 362, 1-5-[(furan-2-ylmethyl)amino]-3-(pyridin-3-yl)-1H-1,2,4-triazol-1-ylbutan-1-one] cannot be ordered by IC50: < 100 nM for the first, < 100 nM for the second.

`O=C(Nc1n[nH]c(-c2ccco2)n1)c1ccccc1` [Cmpd 407, N-[5-(furan-2-yl)-1H-1,2,4-triazol-3-yl]benzamide] was tested, and the IC50 was > 1000 nM.

Same assay, conditions: inhibition of the protease activity of thrombin

`O=C(c1cn(-c2ccccn2)nc1NCc1ccc(F)cc1)N1CCCCC1` [Cmpd 225, N-[(4-fluorophenyl)methyl]-4-[(piperidin-1-yl)carbonyl]-1-(pyridin-2-yl)-1H-pyrazol-3-amine] and `CCN(C)C(=O)c1cc(-c2ccccn2)n(CCc2ccc(F)cc2)n1` [Cmpd 294, N-ethyl-1-[2-(4-fluorophenyl)ethyl]-N-methyl-5-(pyridin-2-yl)-1H-pyrazole-3-carboxamide] cannot be ordered by IC50: > 1000 nM for the first, > 1000 nM for the second.

Compared with `CCNC(=O)n1nc(-c2cccnc2)nc1NCc1ccc(F)cc1` [Cmpd 296, N-ethyl-5-[(4-fluorophenyl)methyl]amino-3-(pyridin-3-yl)-1H-1,2,4-triazole-1-carboxamide], `O=C(c1cccs1)n1nc(-c2ccncc2)nc1NCc1ccc(F)cc1` [Cmpd 221, N-[(4-fluorophenyl)methyl]-3-(pyridin-4-yl)-1-[(thiophen-2-yl)carbonyl]-1H-1,2,4-triazol-5-amine] is lower in IC50: > 1000 nM for the first, 100 to 1000 nM for the second. The second is the more potent here.

`COc1ccccc1C(=O)n1nc(-c2ccco2)nc1NCc1ccccc1` [Cmpd 280, N-benzyl-3-(furan-2-yl)-1-[(2-methoxyphenyl)carbonyl]-1H-1,2,4-triazol-5-amine] and `COc1ccc(C(=O)n2nc(-c3ccccn3)nc2NCc2ccccc2)c(OC)c1` [Cmpd 235, N-benzyl-1-[(2,4-dimethoxyphenyl)carbonyl]-3-(pyridin-2-yl)-1H-1,2,4-triazol-5-amine] cannot be ordered by IC50: < 100 nM for the first, < 100 nM for the second.

`COc1ccc(CNc2nc(-c3ccncc3)nn2C(=O)c2ccsc2)cc1` [Cmpd 230, N-[(4-methoxyphenyl)methyl]-3-(pyridin-4-yl)-1-[(thiophen-3-yl)carbonyl]-1H-1,2,4-triazol-5-amine] and `COc1ccc(CNc2nc(-c3ccccn3)nn2C(=O)c2ccsc2)cc1` [Cmpd 227, N-[(4-methoxyphenyl)methyl]-3-(pyridin-2-yl)-1-[(thiophen-3-yl)carbonyl]-1H-1,2,4-triazol-5-amine] fall in the same range of IC50: 100 to 1000 nM for the first, 100 to 1000 nM for the second.

Compared with `O=C(c1ccccc1Cl)n1nc(-c2ccccc2F)cc1NCc1ccccc1` [Cmpd 242, N-benzyl-1-[(2-chlorophenyl)carbonyl]-3-(2-fluorophenyl)-1H-pyrazol-5-amine], `COc1ccc(C(=O)n2nc(-c3ccccn3)nc2NCc2ccccc2)c(F)c1` [Cmpd 248, N-benzyl-1-[(2-fluoro-4-methoxyphenyl)carbonyl]-3-(pyridin-2-yl)-1H-1,2,4-triazol-5-amine] is lower in IC50: 100 to 1000 nM for the first, < 100 nM for the second.

Same assay, conditions: inhibition of the protease activity of thrombin; class symbols a/b/c

`CCC(=O)n1nc(-c2ccccc2)c(C)c1NCc1ccc(F)cc1` [Cmpd 85, 1-(5-[(4-fluorophenyl)methyl]amino-4-methyl-3-phenyl-1H-pyrazol-1-yl)propan-1-one] and `CCC(=O)n1nc(-c2cccnc2)cc1NCc1ccc(F)cc1` [Cmpd 74, 1-(5-[(4-fluorophenyl)methyl]amino-3-(pyridin-3-yl)-1H-pyrazol-1-yl)propan-1-one] cannot be ordered by IC50: > 1000 nM for the first, > 1000 nM for the second.

Compared with `CC(C)(C)C(=O)n1nc(-c2ccncc2)nc1NCc1ccc(F)cc1` [Cmpd 75, 1-(5-[(4-fluorophenyl)methyl]amino-3-(pyridin-4-yl)-1H-1,2,4-triazol-1-yl)-2,2-dimethylpropan-1-one], `CC(C)(C)C(=O)Cn1nc(-c2cccnc2)nc1NCc1ccc(F)cc1` [Cmpd 72, 1-(5-[(4-fluorophenyl)methyl]amino-3-(pyridin-3-yl)-1H-1,2,4-triazol-1-yl)-3,3-dimethylbutan-2-one] is higher in IC50: < 100 nM for the first, > 1000 nM for the second.

First: COc1ccccc1C(=O)n1nc(-c2ccccn2)nc1NCc1cccc2ccccc12 [Cmpd 119, 1-[(2-methoxyphenyl)carbonyl]-N-(naphthalen-1-ylmethyl)-3-(pyridin-2-yl)-1H-1,2,4-triazol-5-amine]
Second: COc1ccc(CNc2nc(-c3ccccn3)nn2C(=O)Cc2ccccc2)cc1 [Cmpd 89, 1-(5-[(4-methoxyphenyl)methyl]amino-3-(pyridin-2-yl)-1H-1,2,4-triazol-1-yl)-2-phenylethan-1-one]
The IC50 of the first is higher: > 1000 nM for the first, < 100 nM for the second. The second is the more potent here.

First: CC(C)CC(=O)n1nc(-c2ccccc2F)cc1NCc1ccccc1 [Cmpd 134, 1-[5-(benzylamino)-3-(2-fluorophenyl)-1H-pyrazol-1-yl]-3-methylbutan-1-one]
Second: CC(C)(C)C(=O)n1nc(-c2ccccc2F)cc1NCc1ccccc1 [Cmpd 133, 1-[5-(benzylamino)-3-(2-fluorophenyl)-1H-pyrazol-1-yl]-2,2-dimethylpropan-1-one]
The IC50 of the first is higher: > 1000 nM for the first, 100 to 1000 nM for the second. The second is the more potent here.

`O=C(Cc1ccccc1)n1nc(-c2ccccn2)nc1NCc1ccccc1` [Cmpd 139, 1-[5-(benzylamino)-3-(pyridin-2-yl)-1H-1,2,4-triazol-1-yl]-2-phenylethan-1-one] and `O=C(Cc1ccccc1)n1nc(-c2ccccn2)nc1NCc1ccc(F)cc1` [Cmpd 66, 1-(5-[(4-fluorophenyl)methyl]amino-3-(pyridin-2-yl)-1H-1,2,4-triazol-1-yl)-2-phenylethan-1-one] cannot be ordered by IC50: < 100 nM for the first, < 100 nM for the second.

`Nc1cc(-c2ccccn2)nn1-c1ccccc1Cl` [Cmpd 42] and `CC(O)c1cc(-c2ccccn2)nn1CCc1ccc(F)cc1` (stereo not shown) [Cmpd 163, 1-1-[2-(4-fluorophenyl)ethyl]-3-(pyridin-2-yl)-1H-pyrazol-5-ylethan-1-ol] cannot be ordered by IC50: > 1000 nM for the first, > 1000 nM for the second.

`c1cncc(-c2n[nH]c(NCc3cccs3)n2)c1` [Cmpd 178, 3-(pyridin-3-yl)-N-(thiophen-2-ylmethyl)-1H-1,2,4-triazol-5-amine] and `Fc1ccc(CNc2nc(-c3cccnc3)n[nH]2)cc1` [Cmpd 4] cannot be ordered by IC50: > 1000 nM for the first, > 1000 nM for the second.

`CNC(=O)c1n[nH]c(C(=O)Nc2ccccc2Cl)n1` [Cmpd 187, 5-C-(2-chlorobenzene)-3-N-methyl-1H-1,2,4-triazole-3,5-dicarboxamide] and `COC(=O)c1n[nH]c(NC(=O)c2ccc(C)cc2)n1` [Cmpd 196, methyl 5-[(4-methylbenzene)amido]-1H-1,2,4-triazole-3-carboxylate] cannot be ordered by IC50: > 1000 nM for the first, > 1000 nM for the second.

First: CCCC(=O)n1nc(-c2ccccn2)nc1NCc1ccc(OC)cc1 [Cmpd 92, 1-(5-[(4-methoxyphenyl)methyl]amino-3-(pyridin-2-yl)-1H-1,2,4-triazol-1-yl)butan-1-one]
Second: COc1ccc(CNc2nc(-c3ccncc3)nn2C(=O)c2ccccc2)cc1 [Cmpd 158, 1-benzoyl-N-[(4-methoxyphenyl)methyl]-3-(pyridin-4-yl)-1H-1,2,4-triazol-5-amine]
The IC50 of the first is lower: < 100 nM for the first, > 1000 nM for the second. The first is the more potent here.

Compared with `CSc1nc(-c2cccnc2)nn1C(=O)c1ccccc1Cl` [Cmpd 180, 3-1-[(2-chlorophenyl)carbonyl]-5-(methylsulfanyl)-1H-1,2,4-triazol-3-ylpyridine], `CCC(=O)c1cn(-c2ccccn2)nc1NCc1ccc(F)cc1` [Cmpd 50] is higher in IC50: < 100 nM for the first, > 1000 nM for the second.
